Source: patent publication US9187411B2, “Leukotriene B4 antagonist compound” (Eli Lilly and Company, priority 2012, dated 2015)

Tests used:
[1] = system: LTB4-induced phosphorylation of ERK in monocytes; assay: Human pERK assay in whole blood; format: cell-based; conditions: Monocyte, 10 nM LTB4
Experimental: (§1) The ability of the compound of Example 2 to block LTB4-induced signaling through BLT1 was assessed in whole blood obtained from healthy human volunteers and from 129SvEv mice that are the model strain for preclinical AAA efficacy evaluation.
Whole blood is collected from human donors in 10 mL K2 ethylenediaminetetraacetic acid (EDTA) vacutainer tubes (BD Biosciences). Aliquots of whole blood are pre-warmed at 37° C. for 20 min. 10 point dose response curves of test compounds are assayed at final concentrations of 20 nM-10 μM. 10 point ½ serial dilutions of compound at 1000× of final assayed concentration are prepared in DMSO. Compound is then diluted to 10× in Dulbecco's Phosphate Buffered Saline (DPBS) (DMSO concentration is now 1%). 10 μL of compound dilutions (at 10× in DPBS) or 1% DMSO in DPBS are added to wells of a 2.0 mL volume 96 deep well plate (Nunc) and placed in 37° C. heat block.
Immediately thereafter, 80 μL whole blood is added and incubated for 20 min at 37° C. […] Samples are warmed to room temperature and analyzed on a Beckman Coulter FC500 flow cytometer. […] Data are analyzed with WinList software (Verity Software House) to determine mean and median fluorescent intensity values for pERK-PE from monocyte population.

[2] = system: LTB4-induced phosphorylation of ERK in monocytes; assay: Mouse pERK assay in whole blood; format: cell-based, 129SvEv mice; conditions: Monocyte, 20 nM LTB4
Experimental: as §1
Whole blood is collected from 129SvEv mice in 50 mM EDTA (Gibco). For in vitro experiments, 10 point dose response curves of test compounds are assayed at final concentrations of 20 nM-10 μM. 10 point ½ serial dilutions of compound at 1000× of final assayed concentration are prepared in DMSO. Compound is then diluted to 10× in DPBS (DMSO concentration is now 1%). 10 μL of compound dilutions (at 10× diluted in DPBS) or 1% DMSO in DPBS are added to wells of a 96 deep well plate. 80 μL whole blood is added and incubated for 20 min at room temperature (10 μL of anti-mouse LY6G-FITC antibody (BD Pharmingen) and 10 μl of anti-mouse CD11b-APC BD Biosciences at 1 μg/mL final concentrations are added for final 10 min) 11 μL of 10× pre-warmed LTB4 (final concentration 20 nM) is added and incubated at 37° C. for 2 min. Reaction is stopped with 1.5 mL of 1× Phosflow Lyse/Fix from BD Biosciences (pre-warmed to 37° C.). The plate is sealed, vortexed, and incubated at 37° C. for 10 min. Cells are washed once with 1.5 mL DPBS then permeablized with 1 mL BD Perm/Wash buffer (BD Biosciences) for 10 min at room temperature. […]

[3] = Exposure (AUC) in the LDLr KO mouse atherosclerosis study; conditions: male, LDLr KO (JAX #002207), in vivo, LDLr KO mice
Source text: LDLr KO mice (JAX #002207), 7 week old males, were obtained from The Jackson Laboratory (Bar Harbor, Me.). Upon arrival at the testing facility and continuing for a total of 10 weeks, mice were housed individually and fed the atherogenic diet TD.88137 (Teklad) ad libitum. During the first 6 weeks, the mice rested undisturbed in their cages. During the last 4 weeks, the mice received the test compound twice daily by oral gavage.

Question: Which IC50 [1] does the source give for CCCc1c(NC(=O)CC(C)(C)C(=O)[O-])cccc1OCCCOc1cc(O)c(-c2ccc(F)cc2)cc1CC.[Na+] [Example 2, Sodium 4-[[3-[3-[2-ethyl-4-(4-fluorophenyl)-5-hydroxy-phenoxy]propoxy]-2-propyl-phenyl]amino]-2,2-dimethyl-4-oxo-butanoate] here?
Answer: 814 nM

Question: And the IC50 [2]?
Answer: 243 nM

Question: What about the AUC ([3]; 3 mg/kg BID oral gavage) of the same compound?
Answer: 1110 ng·h/mL

Question: What about the AUC ([3]; 10 mg/kg BID oral gavage) of the same compound?
Answer: 5380 ng·h/mL

Question: What about the AUC ([3]; 30 mg/kg BID oral gavage) of the same compound?
Answer: 12800 ng·h/mL
